Test results from PubChem BioAssay (NCI).
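1) Cells in 96-well plates. 2) Compound, 48 h, 5 concentrations. 3) Linear interpolation between surrounding doses. 4) Unreached endpoint = highest concentration. GI50: concentration for 50% inhibition of growth. TGI marks complete inhibition of growth.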

What was measured:
Experiment in all cases: NCI anticancer screen, dose series, 48 h
SK-MEL-5 melanoma = tested on: SK-MEL-5 melanoma
COLO 205 colon = tested on: COLO 205 colon
786-0 renal = tested on: 786-0 renal
RPMI-8226 leukemia = tested on: RPMI-8226 leukemia
SNB-75 CNS = tested on: SNB-75 CNS
MCF7 breast = tested on: MCF7 breast
SK-OV-3 ovarian = tested on: SK-OV-3 ovarian
PC-3 prostate = tested on: PC-3 prostate
HT29 colon = tested on: HT29 colon
A498 renal = tested on: A498 renal
U251 CNS = tested on: U251 CNS
EKVX NSCLC = tested on: EKVX NSCLC
MDA-MB-231 breast = tested on: MDA-MB-231 breast
HCC-2998 colon = tested on: HCC-2998 colon
MALME-3M melanoma = tested on: MALME-3M melanoma
KM12 colon = tested on: KM12 colon
HS 578T breast = tested on: HS 578T breast
OVCAR-5 ovarian = tested on: OVCAR-5 ovarian
NCI-H226 lung = tested on: NCI-H226 lung
MOLT-4 leukemia = tested on: MOLT-4 leukemia
NCI-H23 lung = tested on: NCI-H23 lung
NCI/ADR-RES ovarian = tested on: NCI/ADR-RES ovarian
NCI-H460 lung = tested on: NCI-H460 lung
A549 NSCLC = tested on: A549 NSCLC
BT-549 breast = tested on: BT-549 breast
LOX IMVI melanoma = tested on: LOX IMVI melanoma
SNB-19 CNS = tested on: SNB-19 CNS
OVCAR-8 ovarian = tested on: OVCAR-8 ovarian
NCI-H522 lung = tested on: NCI-H522 lung
OVCAR-4 ovarian = tested on: OVCAR-4 ovarian
HOP-92 NSCLC = tested on: HOP-92 NSCLC
HCT-15 colon = tested on: HCT-15 colon
HOP-62 NSCLC = tested on: HOP-62 NSCLC
SF-539 CNS = tested on: SF-539 CNS
HL-60(TB) leukemia = tested on: HL-60(TB) leukemia
OVCAR-3 ovarian = tested on: OVCAR-3 ovarian
SR leukemia = tested on: SR leukemia
HCT-116 colon = tested on: HCT-116 colon
ACHN renal = tested on: ACHN renal
CAKI-1 renal = tested on: CAKI-1 renal
UACC-62 melanoma = tested on: UACC-62 melanoma
RXF 393 renal = tested on: RXF 393 renal
UO-31 renal = tested on: UO-31 renal
SF-268 CNS = tested on: SF-268 CNS
IGROV1 ovarian = tested on: IGROV1 ovarian
T-47D breast = tested on: T-47D breast
TK-10 renal = tested on: TK-10 renal
MDA-MB-435 = tested on: MDA-MB-435
DU-145 prostate = tested on: DU-145 prostate
K-562 leukemia = tested on: K-562 leukemia
CCRF-CEM leukemia = tested on: CCRF-CEM leukemia
SK-MEL-2 melanoma = tested on: SK-MEL-2 melanoma
SW-620 colon = tested on: SW-620 colon
SK-MEL-28 melanoma = tested on: SK-MEL-28 melanoma
SN12C renal = tested on: SN12C renal
M14 melanoma = tested on: M14 melanoma
SF-295 CNS = tested on: SF-295 CNS

Cc1cnc(NC2CCOCC2)nc1-n1cnc(C(=O)N[C@H](CN)c2cc(F)cc(Cl)c2)c1
GI50 (SK-MEL-5 melanoma): 0.388 µM | TGI (SK-MEL-5 melanoma): 12.9 µM | GI50 (COLO 205 colon): < 0.01 µM | TGI (COLO 205 colon): 14.2 µM | GI50 (786-0 renal): 1.49 µM | TGI (786-0 renal): 20 µM | GI50 (RPMI-8226 leukemia): 7.45 µM | TGI (RPMI-8226 leukemia): 30.4 µM | GI50 (SNB-75 CNS): 0.103 µM | TGI (SNB-75 CNS): 8.84 µM | GI50 (MCF7 breast): 1.58 µM | TGI (MCF7 breast): 15.4 µM | GI50 (SK-OV-3 ovarian): 0.523 µM | TGI (SK-OV-3 ovarian): 8.17 µM | GI50 (PC-3 prostate): 4.36 µM | TGI (PC-3 prostate): 38.5 µM | GI50 (HT29 colon): 0.0128 µM | TGI (HT29 colon): > 35.4 µM | GI50 (A498 renal): 0.0508 µM | TGI (A498 renal): 0.462 µM | GI50 (U251 CNS): 1.54 µM | TGI (U251 CNS): 22.9 µM | GI50 (EKVX NSCLC): 0.427 µM | TGI (EKVX NSCLC): 20.2 µM | GI50 (MDA-MB-231 breast): 0.0999 µM | TGI (MDA-MB-231 breast): > 30.6 µM | GI50 (HCC-2998 colon): 0.018 µM | TGI (HCC-2998 colon): 11.6 µM | GI50 (MALME-3M melanoma): < 0.01 µM | TGI (MALME-3M melanoma): 0.0157 µM | GI50 (KM12 colon): 0.0814 µM | TGI (KM12 colon): 30.1 µM | GI50 (HS 578T breast): 0.871 µM | TGI (HS 578T breast): 15.8 µM | GI50 (OVCAR-5 ovarian): 0.0269 µM | TGI (OVCAR-5 ovarian): > 82.8 µM | GI50 (NCI-H226 lung): 1.36 µM | TGI (NCI-H226 lung): 10.9 µM | GI50 (MOLT-4 leukemia): 1.59 µM | TGI (MOLT-4 leukemia): 9.79 µM | GI50 (NCI-H23 lung): 0.0201 µM | TGI (NCI-H23 lung): 16.5 µM | GI50 (NCI/ADR-RES ovarian): 19.8 µM | TGI (NCI/ADR-RES ovarian): > 91.9 µM | GI50 (NCI-H460 lung): 1.05 µM | TGI (NCI-H460 lung): 17.9 µM | GI50 (A549 NSCLC): 0.216 µM | TGI (A549 NSCLC): 30.5 µM | GI50 (BT-549 breast): 5.02 µM | TGI (BT-549 breast): 17.2 µM | GI50 (LOX IMVI melanoma): 0.0441 µM | TGI (LOX IMVI melanoma): 5.88 µM | GI50 (SNB-19 CNS): 13.9 µM | TGI (SNB-19 CNS): > 57.8 µM | GI50 (OVCAR-8 ovarian): 3.48 µM | TGI (OVCAR-8 ovarian): 42.6 µM | GI50 (NCI-H522 lung): 8.23 µM | TGI (NCI-H522 lung): 30.5 µM | GI50 (OVCAR-4 ovarian): 0.506 µM | TGI (OVCAR-4 ovarian): 53.5 µM | GI50 (HOP-92 NSCLC): 0.023 µM | TGI (HOP-92 NSCLC): 2.12 µM | GI50 (HCT-15 colon): 3.06 µM | TGI (HCT-15 colon): 34.3 µM | GI50 (HOP-62 NSCLC): 0.154 µM | TGI (HOP-62 NSCLC): 20.9 µM | GI50 (SF-539 CNS): 2.93 µM | TGI (SF-539 CNS): 17.4 µM | GI50 (HL-60(TB) leukemia): 0.0196 µM | TGI (HL-60(TB) leukemia): 1.83 µM | GI50 (OVCAR-3 ovarian): 1.94 µM | TGI (OVCAR-3 ovarian): 22.2 µM | GI50 (SR leukemia): 1.14 µM | TGI (SR leukemia): 16.5 µM | GI50 (HCT-116 colon): 0.0177 µM | TGI (HCT-116 colon): 12.4 µM | GI50 (ACHN renal): 1.64 µM | TGI (ACHN renal): 28 µM | GI50 (CAKI-1 renal): 0.237 µM | TGI (CAKI-1 renal): 5.34 µM | GI50 (UACC-62 melanoma): 0.0102 µM | TGI (UACC-62 melanoma): 5.57 µM | GI50 (RXF 393 renal): 0.101 µM | TGI (RXF 393 renal): 2.42 µM | GI50 (UO-31 renal): 0.903 µM | TGI (UO-31 renal): 5.43 µM | GI50 (SF-268 CNS): 1.86 µM | TGI (SF-268 CNS): 23.2 µM | GI50 (IGROV1 ovarian): 0.0702 µM | TGI (IGROV1 ovarian): 13 µM | GI50 (T-47D breast): 13.6 µM | TGI (T-47D breast): 46.6 µM | GI50 (TK-10 renal): 0.113 µM | TGI (TK-10 renal): 23 µM | GI50 (MDA-MB-435): 0.0638 µM | TGI (MDA-MB-435): 16.4 µM | GI50 (DU-145 prostate): 2.34 µM | TGI (DU-145 prostate): 82.8 µM | GI50 (K-562 leukemia): 0.783 µM | TGI (K-562 leukemia): 14.5 µM | GI50 (CCRF-CEM leukemia): 2.4 µM | TGI (CCRF-CEM leukemia): 24.5 µM | GI50 (SK-MEL-2 melanoma): 0.0186 µM | TGI (SK-MEL-2 melanoma): 0.531 µM | GI50 (SW-620 colon): 0.0383 µM | TGI (SW-620 colon): 14.3 µM | GI50 (SK-MEL-28 melanoma): 0.0203 µM | TGI (SK-MEL-28 melanoma): 13.5 µM | GI50 (SN12C renal): 2.27 µM | TGI (SN12C renal): > 52.1 µM | GI50 (M14 melanoma): 0.0193 µM | TGI (M14 melanoma): 2.38 µM | GI50 (SF-295 CNS): 2.8 µM | TGI (SF-295 CNS): 17.3 µM
